Reference: ChEMBL document CHEMBL1201862, “PubChem BioAssay data set” (2004)
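Five compound concentrations were applied to cells in 96-well plates for 48 hours; endpoints were derived by simple linear interpolation of the resulting dose-response curve. GI50 marks 50% less growth.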 The source made the active and inactive calls. No stated cut-off is given here; in the data, active = GI50 up to about 1.1 µM and inactive = higher.

How the values were obtained:
Assay in all cases: NCI tumour cell line growth inhibition, 48 h
UACC-62 = system: UACC-62
K562 = system: K562
HOP-62 = system: HOP-62
OVCAR-4 = system: OVCAR-4
ACHN = system: ACHN
HOP-92 = system: HOP-92
SNB-75 = system: SNB-75
T47D = system: T47D
KM12 = system: KM12
SNB-19 = system: SNB-19
NCI-H522 = system: NCI-H522
OVCAR-3 = system: OVCAR-3
UO-31 = system: UO-31
HCT-116 = system: HCT-116
MDA-MB-231 = system: MDA-MB-231
786-0 = system: 786-0
SF-268 = system: SF-268
IGROV-1 = system: IGROV-1
COLO 205 = system: COLO 205
SNB-78 = system: SNB-78

Compound | GI50 (UACC-62) | GI50 (K562) | GI50 (HOP-62) | GI50 (OVCAR-4) | GI50 (ACHN) | GI50 (HOP-92) | GI50 (SNB-75) | GI50 (T47D) | GI50 (KM12) | GI50 (SNB-19) | GI50 (NCI-H522) | GI50 (OVCAR-3) | GI50 (UO-31) | GI50 (HCT-116) | GI50 (MDA-MB-231) | GI50 (786-0) | GI50 (SF-268) | GI50 (IGROV-1) | GI50 (COLO 205) | GI50 (SNB-78)
C=CCNC1=C2C[C@@H](C)C[C@@H](OC)[C@H](OC(=O)CCN)[C@H](C)/C=C(\C)[C@@H](OC(N)=O)[C@H](OC)/C=C\C=C(/C)C(=O)NC(=CC1=O)C2=O | 2.9 µM (inactive) | 3.99 µM (inactive) | 3.53 µM (inactive) | 8.93 µM (inactive) | 12.6 µM (inactive) | 4.49 µM (inactive) | 3.18 µM (inactive) | 4.89 µM (inactive) | 1.79 µM (inactive) | 6.27 µM (inactive) | 5.3 µM (inactive) | 2.45 µM (inactive) | 11.2 µM (inactive) | 3.53 µM (inactive) | 5.19 µM (inactive) | 4.38 µM (inactive) | 9.57 µM (inactive) | 4.74 µM (inactive) | 0.718 µM (active) | –
COc1cc(/C=C/c2cc(/C=C/c3ccc(O)c(OC)c3)oc(=O)c2)ccc1O | 4.69 µM (inactive) | 4.43 µM (inactive) | 4.92 µM (inactive) | 3.84 µM (inactive) | 3.26 µM (inactive) | 4.67 µM (inactive) | 0.393 µM (active) | 0.272 µM (active) | 3.18 µM (inactive) | 7.57 µM (inactive) | 2.87 µM (inactive) | 2.36 µM (inactive) | 3.01 µM (inactive) | 3.67 µM (inactive) | 13.9 µM (inactive) | 5.62 µM (inactive) | 3.94 µM (inactive) | 4.67 µM (inactive) | 13.1 µM (inactive) | –
CC1=CC(C/C(C)=C/COc2ccc3ccc(=O)oc3c2)OC1=O (configuration not stated) | > 100 µM (inactive) | 59.8 µM (inactive) | > 100 µM (inactive) | > 100 µM (inactive) | > 100 µM (inactive) | > 100 µM (inactive) | > 100 µM (inactive) | > 100 µM (inactive) | > 100 µM (inactive) | > 100 µM (inactive) | > 100 µM (inactive) | > 100 µM (inactive) | > 100 µM (inactive) | 92.7 µM (inactive) | 5.66 µM (inactive) | > 100 µM (inactive) | > 100 µM (inactive) | > 100 µM (inactive) | > 100 µM (inactive) | –
NC(=O)NNCc1c(-c2ccccc2)no[n+]1[O-] | > 100 µM (inactive) | > 100 µM (inactive) | > 100 µM (inactive) | > 100 µM (inactive) | > 100 µM (inactive) | > 100 µM (inactive) | > 100 µM (inactive) | > 100 µM (inactive) | > 100 µM (inactive) | > 100 µM (inactive) | > 100 µM (inactive) | > 100 µM (inactive) | > 100 µM (inactive) | > 100 µM (inactive) | > 100 µM (inactive) | > 100 µM (inactive) | > 100 µM (inactive) | > 100 µM (inactive) | > 100 µM (inactive) | –
N/C(=N\c1ccc(Cl)cc1)NS(=O)(=O)c1ccc(S(=O)(=O)c2ccccc2)s1 | 11.3 µM (inactive) | 18.8 µM (inactive) | 18.1 µM (inactive) | 17.5 µM (inactive) | 20.9 µM (inactive) | 19.7 µM (inactive) | 35.7 µM (inactive) | 17 µM (inactive) | 22.8 µM (inactive) | 33.8 µM (inactive) | 14.5 µM (inactive) | 25.4 µM (inactive) | 16.6 µM (inactive) | 15.4 µM (inactive) | 12.9 µM (inactive) | 19.9 µM (inactive) | 19.4 µM (inactive) | 13.8 µM (inactive) | 18.4 µM (inactive) | –
COC1(OC)C=CC2C1C1C=CC2C1(OC)OC (configuration not stated) | > 100 µM (inactive) | > 100 µM (inactive) | > 100 µM (inactive) | > 100 µM (inactive) | > 100 µM (inactive) | > 100 µM (inactive) | > 100 µM (inactive) | > 100 µM (inactive) | > 100 µM (inactive) | > 100 µM (inactive) | > 100 µM (inactive) | > 100 µM (inactive) | > 100 µM (inactive) | > 100 µM (inactive) | > 100 µM (inactive) | > 100 µM (inactive) | > 100 µM (inactive) | > 100 µM (inactive) | > 100 µM (inactive) | –
CCCC(=O)Nc1cc(/C=C/C(=O)N2C[C@H]3C[C@@]34C2=CC(=O)c2[nH]cc(C)c24)n(C)c1 | < 0.0025 µM (active) | < 0.0025 µM (active) | < 0.0025 µM (active) | < 0.0025 µM (active) | < 0.0025 µM (active) | < 0.0025 µM (active) | < 0.0025 µM (active) | < 0.0025 µM (active) | < 0.0025 µM (active) | 0.00593 µM (active) | < 0.0025 µM (active) | < 0.0025 µM (active) | 0.00403 µM (active) | < 0.0025 µM (active) | < 0.0025 µM (active) | < 0.0025 µM (active) | < 0.0025 µM (active) | < 0.0025 µM (active) | < 0.0025 µM (active) | –
COC(=O)/C=C(/C=C1/C(C#N)=C(N)N(c2ccc(Cl)cc2)C1(C)/C(=C\C(=O)OC)C(=O)OC)C(=O)OC (configuration not stated) | 12.9 µM (inactive) | 23.1 µM (inactive) | 35.9 µM (inactive) | 18.9 µM (inactive) | 22.6 µM (inactive) | 5.71 µM (inactive) | 25.6 µM (inactive) | 18.3 µM (inactive) | 17.2 µM (inactive) | 41.9 µM (inactive) | 5.69 µM (inactive) | 18.4 µM (inactive) | 17.9 µM (inactive) | 15.8 µM (inactive) | 29.2 µM (inactive) | 18.1 µM (inactive) | 19.5 µM (inactive) | 21.5 µM (inactive) | 15 µM (inactive) | –
Clc1ccc(CNc2nc3ccccc3nc2-c2cccs2)c(Cl)c1 | – | > 100 µM (inactive) | > 100 µM (inactive) | – | 75.2 µM (inactive) | 13.1 µM (inactive) | – | – | – | > 100 µM (inactive) | – | > 100 µM (inactive) | > 100 µM (inactive) | 49 µM (inactive) | – | > 100 µM (inactive) | > 100 µM (inactive) | – | 50 µM (inactive) | > 100 µM (inactive)
O=C(O)CC12CC3CC(CC(O)(C3)C1)C2 | > 100 µM (inactive) | > 100 µM (inactive) | > 100 µM (inactive) | > 100 µM (inactive) | > 100 µM (inactive) | > 100 µM (inactive) | > 100 µM (inactive) | > 100 µM (inactive) | > 100 µM (inactive) | > 100 µM (inactive) | 27.7 µM (inactive) | 3.14 µM (inactive) | > 100 µM (inactive) | > 100 µM (inactive) | > 100 µM (inactive) | > 100 µM (inactive) | 31 µM (inactive) | > 100 µM (inactive) | > 100 µM (inactive) | –
CC1N=C(c2ccccc2)OC1=O (configuration not stated) | > 100 µM (inactive) | > 100 µM (inactive) | > 100 µM (inactive) | > 100 µM (inactive) | > 100 µM (inactive) | > 100 µM (inactive) | > 100 µM (inactive) | > 100 µM (inactive) | > 100 µM (inactive) | > 100 µM (inactive) | > 100 µM (inactive) | > 100 µM (inactive) | > 100 µM (inactive) | > 100 µM (inactive) | > 100 µM (inactive) | > 100 µM (inactive) | > 100 µM (inactive) | > 100 µM (inactive) | > 100 µM (inactive) | –
